Here are results for eight compounds from ChEMBL document CHEMBL1131895, “Proteasome inhibition by the natural products epoxomicin and dihydroeponemycin: insights into specificity and potency” (Bioorg Med Chem Lett, 1999).

What all share (format): functional
A short description of test [1]: Inhibition of the trypsin-like activity.
Test [2] can be described thus: Inhibition of the PGPH-like activity.
Test [3] is described as follows: Inhibition of the chymotrypsin-like activity.
Test [4] in a line: Antiproliferative activity of the compound.

On to `CC(C)CCCCC(=O)NC(C(=O)NC(CC(C)C)C(=O)[C@@]1(CO)CO1)[C@@H](C)O` (some centres not stated), for which the k obs / 1 in test [1] was found to be 5 M⁻¹ s⁻¹; in test [2], 50 M⁻¹ s⁻¹; in test [3] it was 22 M⁻¹ s⁻¹. The IC50 in test [4] came to 850 nM.

Take `CC[C@H](C)[C@H](NC(=O)[C@H]([C@@H](C)CC)N(C)C(C)=O)C(=O)NC(CO)C(=O)NC(CC(C)C)C(=O)[C@@]1(CO)CO1` (single isomer, unassigned): the k obs / 1 in test [1] came to 470 M⁻¹ s⁻¹; in test [2], 35 M⁻¹ s⁻¹; in test [3], 17000 M⁻¹ s⁻¹. In addition, in test [4], 140 nM corresponded to half-maximal inhibition (IC50).

`CC(C)CCCCC(=O)NC(C(=O)NC(CC(C)C)C(=O)[C@@]1(C)CO1)[C@@H](C)O` (some centres not stated): the results for the k obs / 1 in test [1], in test [2] and in test [3] were 4 M⁻¹ s⁻¹, 45 M⁻¹ s⁻¹ and 25 M⁻¹ s⁻¹, respectively. Further, the midpoint of inhibition in test [4], the IC50, lay at 520 nM.

For `CC[C@H](C)[C@H](NC(=O)[C@H]([C@@H](C)CC)N(C)C(C)=O)C(=O)NC(C(=O)NC(CC(C)C)C(=O)[C@@]1(C)CO1)[C@@H](C)O` (single isomer, unassigned) [EPOXOMYCIN], the results for the k obs / 1 in test [1], in test [2] and in test [3] were 310 M⁻¹ s⁻¹, 43 M⁻¹ s⁻¹ and 20000 M⁻¹ s⁻¹, respectively. This compound returned an IC50 in test [4] of 4 nM.

Consider `CC(C)CCCCC(=O)NC(CO)C(=O)N[C@H](CC(C)C)C(=O)[C@@]1(C)CO1` (some centres not stated), for which the values for the k obs / 1 in test [1], in test [2] and in test [3] were 5 M⁻¹ s⁻¹, 57 M⁻¹ s⁻¹ and 34 M⁻¹ s⁻¹, respectively. The 50% inhibitory concentration (IC50) in test [4] was determined as 260 nM.

For `CC[C@H](C)[C@H](NC(=O)[C@H]([C@@H](C)CC)N(C)C(C)=O)C(=O)NC(CO)C(=O)NC(CC(C)C)C(=O)[C@@]1(C)CO1` (single isomer, unassigned), the k obs / 1 was found to be 1100 M⁻¹ s⁻¹ in test [1], 90 M⁻¹ s⁻¹ in test [2] and 32000 M⁻¹ s⁻¹ in test [3]. Further, the IC50 in test [4] amounted to 4 nM.

Turning to `CC(C)CCCCC(=O)NC(CO)C(=O)N[C@H](CC(C)C)C(=O)[C@@]1(CO)CO1` (some centres not stated), the values for the k obs / 1 in test [1], in test [2] and in test [3] were 17 M⁻¹ s⁻¹, 175 M⁻¹ s⁻¹ and 58 M⁻¹ s⁻¹, respectively. In test [4], this compound came in with a half-inhibitory concentration (IC50) of 100 nM.

Take `CC[C@H](C)[C@H](NC(=O)[C@H]([C@@H](C)CC)N(C)C(C)=O)C(=O)NC(C(=O)NC(CC(C)C)C(=O)[C@@]1(CO)CO1)[C@@H](C)O` (single isomer, unassigned): the k obs / 1 in test [1] came to 290 M⁻¹ s⁻¹; in test [2], 37 M⁻¹ s⁻¹; in test [3], 18000 M⁻¹ s⁻¹. This compound came in with an IC50 in test [4] of 60 nM.

By IC50 is commonly meant the concentration that gives 50% inhibition. A higher IC50 goes with weaker potency.
